Experiments:
[1] = tested on: neuropathic rats (chronic constriction injury); assay: Cold allodynia response (cold bath assay) in neuropathic (chronic constriction injury) rats; type: in vivo, rat
Procedure: This experiment was conducted to evaluate the effects of 4-(2-benzofuran-7-yl-5-oxo-oxazol-4-ylidenemethyl)-N-phenyl-piperazine-1-carboxamidine hydrochloride, and similar or related compounds, on the cold allodynia response in neuropathic rats. The test apparatus and methods of behavioral testing is described in Gogas et al. (1997) Analgesia 3:111-118.
Male Sprague-Dawley rats (Harlan), 160-200 g, were surgically prepared to have a chronic constriction injury (CCl) as described above 6 days prior to testing. Rats were selected for the study according to the following criteria: 1) the average of two trials was less than or equal to 13 sec; and 2) there was consistency across the two trial scores. Animals were screened for hypersensitivy to cold on post-surgery days 4 through 10, and selected for inclusion in dose-response studies based on the criteria described above. The pre-dose screening values were used as the animals' baseline cold allodynia scores.
Selected rats were tested twice in the cold bath assay described above for a pre-dose baseline and randomly assigned to treatment groups and dosed at 0 (vehicle, 10 ml/kg, 0.5% CMC, 30, 100 or 300 μg/kg, i.p. After 1 hour and 3 hours post-dosing, rats were tested in the cold bath assay. For each rat, the assay was run once at 1 and 3 hours post-dose. The time to raise the rear leg was recorded in each trial. The maximal observing time in each trial was 20 seconds.
(§1) Male Sprague-Dawley rats (Harlan), 160-270 g, were surgically prepared to have a chronic constriction injury (CCl) as described above 5 days prior to testing. Rats were selected and tested as described in Example 3. Selected rats were dosed at 0 (vehicle, 10 mL/kg, deionized water), 30 or 300 μg/kg, i.p. After 20 min and 40 minutes post-dosing, rats were tested in the cold bath assay.
as §1, with “170-270” for “160-270”, “14” for “5”
(§2) Heat and cold allodynia responses can be evaluated as described below in rats having a chronic constriction injury (CCl). A unilateral mononeuropathy is produced in rats using the chronic constriction injury model described in Bennett et al. (1988) Pain 33:87-107.
(§3) CCl is produced in anesthetized rats as follows. The lateral aspect of each rat's hind limb is shaved and scrubbed with Nolvasan. Using aseptic techniques, an incision is made on the lateral aspect of the hind limb at the mid-thigh level. The biceps femoris is bluntly dissected to expose the sciatic nerve. On the right hind limb of each rat, four loosely tied ligatures (for example, Chromic gut 4.0; Ethicon, Johnson and Johnson, Somerville, N.J.) are made around the sciatic nerve approximately 1-2 mm apart. On the left side of each rat, an identical dissection is performed except that the sciatic nerve is not ligated (sham). The muscle is closed with a continuous suture pattern with, e.g., 4-0 Vicryl (Johnson and Johnson, Somerville, N.J.) and the overlying skin is closed with wound clips. The rats are ear-tagged for identification purposes and returned to animal housing.

[2] = molecular target: T1, alpha1B adrenergic receptor (Homo sapiens, UniProt P35368); assay: [3H]prazosin radioligand binding on membranes of alpha1 adrenergic receptor transfected CHO-K1 cells; details: methods of Example 1: alpha1A, alpha1B and alpha1D transfected CHO-K1 cells
T1 construct: expressed in transfected cells; host or cells: CHO-K1
T1 sequence (P35368 1-520): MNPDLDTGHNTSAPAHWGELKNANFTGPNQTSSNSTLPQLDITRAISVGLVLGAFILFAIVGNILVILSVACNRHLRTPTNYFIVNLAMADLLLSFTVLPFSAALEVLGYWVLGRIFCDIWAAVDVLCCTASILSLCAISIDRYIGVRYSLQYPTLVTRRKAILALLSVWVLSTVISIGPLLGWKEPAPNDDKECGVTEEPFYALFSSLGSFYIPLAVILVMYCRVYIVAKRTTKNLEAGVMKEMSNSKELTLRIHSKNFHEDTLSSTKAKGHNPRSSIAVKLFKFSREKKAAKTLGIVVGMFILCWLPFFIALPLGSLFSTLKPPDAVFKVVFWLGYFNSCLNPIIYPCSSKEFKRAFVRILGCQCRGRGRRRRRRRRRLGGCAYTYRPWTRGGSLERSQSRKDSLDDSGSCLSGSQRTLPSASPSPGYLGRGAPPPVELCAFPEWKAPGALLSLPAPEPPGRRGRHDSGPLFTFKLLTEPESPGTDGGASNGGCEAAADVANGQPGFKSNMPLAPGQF
Procedure: Alpha1A, alpha1B and Alpha1D adrenergic receptor transfected CHO-K1 cells, prepared using the methods described in Chang et al. (1998) FEBS Lett. 422:279-283, were grown to confluence in T-162 tissue culture flasks in Ham's F-12 culture medium supplemented with 10% fetal bovine serum, geneticin (150 μg/ml) and streptomycin: penicillin (30 μg/ml:30 μg/ml) at 37° C. in 7% CO2. Cells were harvested by incubating with phosphate-buffered saline (PBS) containing 30 μM EDTA for 5-10 min at 37° C. Cells were pelleted by centrifuging at 500×g for 5 min, the pelleted cells were homogenized (Polytron homogenizer) in 10 vols (w/v) of 50 mM Tris, 1 mM EDTA, (homogenisation buffer, pH 7.4 at 4° C.). The homogenate was centrifuged at 45,000×g for 20 min. […]
The membranes were thawed at room temperature and diluted in assay buffer (50 mM Tris, pH 7.4) at 37° C. and homogenized using the Polytron tissue disrupter. […] Scintillation cocktail was added to the filter plates and bound radioligand determined by liquid scintillation spectrophotometry.
For each experiment, total binding (in the absence of any test or reference compounds) and non specific binding (10 μM phentolamine) were determined. […] If the radioligand KD was known, the inhibition dissociation constant (Ki) of each ligand was determined according to the method of Cheng et al. (1973) Biochem. Pharmacol. 22:3099-3108).

[3] = tested on: neuropathic rats (chronic constriction injury); assay: Pain response to radiant heat in neuropathic (chronic constriction injury) rats; type: in vivo, rat; details: CCI rats
Procedure: Male Sprague-Dawley rats (Harlan), 240-300 g, were surgically prepared to have a chronic constriction injury (CCl) as described above 13-15 days prior to testing. Rats were selected for the study according to the following criteria: ligated leg (LL)latency−4 to 14 seconds; sham leg (LS) latency−6 to 18 seconds; difference (LDiff=LL−LS)−greater than 1.5 seconds. Selected rats were randomly assigned to treatment groups and dosed at 0 (vehicle, 10 ml/kg, 0.5% CMC, 30, 60, 100 or 300 μg/kg, i.p. After 45 minutes post-dosing, rats were placed under inverted plastic cages on an elevated glass platform. Following 15 minutes of acclimatization, a radiant heat source, e.g., light was placed below the glass and illuminated in order for the glass to reach a temperature of 80-82° F. For each rat, four trials of each of the following were performed: shone light on the left hind paw (sham) and recorded the latency when the paw was withdrawn; shone light on the right hind paw (ligated) and recorded the latency when the paw was withdrawn. Five minute intervals were allowed between trials. Hind paws were examined for redness and blistering after each test.
Male Sprague-Dawley rats (Harlan), 240-300 g, were surgically prepared to have a CCl as described above 19-21 days prior to testing. Rats were selected for the study according to the following described in Example 2. Selected rats were randomly assigned to treatment groups and dosed with 4-(2-naphthalen-1-yl-5-oxo-oxazol-4-ylidenemethyl)-N-phenyl-piperazine-1-carboxamidine at 0 (vehicle, 10 mL/kg deionized water, 30, 60, 100, 300 or 1000 μg/kg, i.p. After 1 hour post-dosing, rats were tested as described in Example 2.
as §2, §3

[4] = 300 μg/kg i.p., 40 min post-dose
[5] = 100 μg/kg i.p., 1 hour post-dose, p<0.01
[6] = 300 μg/kg i.p., 1 hour post-dose, p<0.01
[7] = 300 μg/kg i.p., 3 hours post-dose, p<0.05
[8] = 60 μg/kg i.p., about 1 hour post-dosing
[9] = 100 μg/kg i.p., about 1 hour post-dosing
[10] = 300 μg/kg i.p., about 1 hour post-dosing

| SMILES | cold allodynia: change in latency from pre-dose compared to vehicle group [1, 4] | cold allodynia: latency times compared to vehicle control [1, 4] | identification as selective alpha1B adrenergic receptor antagonist [2] | cold allodynia: actual latency times compared to vehicle [1, 5] | cold allodynia: changes from pre-dose compared to vehicle [1, 5] | cold allodynia: actual latency times compared to vehicle [1, 6] | cold allodynia: changes from pre-dose compared to vehicle [1, 6] | cold allodynia: actual latency times compared to vehicle [1, 7] | cold allodynia: changes from pre-dose compared to vehicle [1, 7] | effect in the radiant heat assay (paw withdrawal latency) [3, 8] | effect in the radiant heat assay (paw withdrawal latency) [3, 9] | effect in the radiant heat assay (paw withdrawal latency) [3, 10] | cold allodynia: change in latency from pre-dose compared to vehicle group ([1]; 30 μg/kg i.p., 20 min post-dose) | cold allodynia: change in latency from pre-dose compared to vehicle group ([1]; 300 μg/kg i.p., 20 min post-dose) | cold allodynia: latency times compared to pre-dose [1, 4] | cold allodynia: latency times compared to pre-dose ([1]; 20 min post-dose, i.p. (doses tested 30 or 300 μg/kg; dose not given)) | effect in the radiant heat assay (paw withdrawal latency) ([3]; 1000 μg/kg i.p., 1 hour post-dosing) |
| --- | --- | --- | --- | --- | --- | --- | --- | --- | --- | --- | --- | --- | --- | --- | --- | --- | --- |
| Cc1c[nH]c(=O)n(CCCN2CCN(c3ccccc3OCC(F)(F)F)CC2)c1=O [3-(3-{4-[2-(2,2,2-trifluoroethoxy)phenyl]-piperazin-1-yl}propyl)-5-methyl-2,4(1H,3H)-pyrimidinedione, reference compound] | significant changes | significant increase in latency times |  |  |  |  |  |  |  |  |  |  |  |  |  |  |  |
| Cl.N=C(Nc1ccccc1)N1CCN(C=C2N=C(c3cccc4ccoc34)OC2=O)CC1 [4-(2-benzofuran-7-yl-5-oxo-oxazol-4-ylidenemethyl)-N-phenyl-piperazine-1-carboxamidine hydrochloride] |  |  | identified as selective alpha1B adrenergic receptor antagonists | significantly higher than vehicle | significantly higher than vehicle | significantly higher than vehicle | significantly higher than vehicle | significantly higher than vehicle | significantly higher than vehicle | significant effect | significant effect | significant effect |  |  |  |  |  |
| N=C(Nc1ccccc1)N1CCN(C=C2N=C(c3cccc4ccccc34)OC2=O)CC1 [4-(2-naphthalen-1-yl-5-oxo-oxazol-4-ylidenemethyl)-N-phenyl-piperazine-1-carboxamidine] | significant change from pre-dose |  | identified as a selective alpha1B adrenergic receptor antagonist |  |  |  |  |  |  | significant effect | significant effect | significant effect | significant increase in latency from pre-dose | significant increase in latency from pre-dose | significant increase in latency | significant change in latency times | significant effect |

Source: US6733982B1, “Method for screening compounds for alpha1B adrenergic receptor antagonist and analgesic activity” (Syntex (U.S.A.) LLC, priority 1999, dated 2004)
